Columns and labels:
Assay type in all cases: cell-based
K562 cells = experiment: K562 cell proliferation inhibition, CCK-8; details: Homo sapiens, 96 h, K562, 4 days
Procedure: The complete medium required for K562 cells is IMDM (ATCC, Product number: 30-2005) basal medium containing 10% fetal bovine serum. K562 cells were seeded in a 96-well plate at a density of 7,500 cells/well, and different concentrations of the compound of the present invention and positive control samples Alisertib (source: Bide Pharmaceuticals) and dBET6 (source: Bide Pharmaceuticals) were prepared to treat the cells. The cells were incubated at a 37° C., 5% CO2 cell culture incubator for 4 days.
Cell viability was detected using the CCK-8 kit (Beyotime, Product number: C0040) according to the manufacturer's instructions. According to the inhibition rate, GraphPad Prism software was used to calculate the IC50 value of each compound for 4 days, and the results are shown in Table 11-12.

MV-4-11 cells = experiment: MV-4-11 cell proliferation inhibition, CCK-8; details: Homo sapiens, MV4-11, 96 h, MV-4-11, 4 days
Procedure: The complete medium required for MV-4-11 cells is IMDM (ATCC, Product number: 30-2005) basal medium containing 10% fetal bovine serum. MV-4-11 cells were seeded in a 96-well plate at a density of 7,500 cells/well, and different concentrations of the compound of the present invention and positive control samples Alisertib (source: Bide Pharmaceuticals), Palbociclib (source: Bide Pharmaceuticals), Ibrutinib (source Bide Pharmaceuticals) treated cells. The cells were incubated in a 37° C., 5% CO2 cell incubator for 4 days. Cell viability was detected using the CCK-8 kit (Beyotime, Product number: C0040) according to the manufacturer's instructions. According to the inhibition rate, GraphPad Prism software was used to calculate the IC50 value of each compound for 4 days, and the results are shown in Table 6-8.

MOLM-13 cells = experiment: MOLM-13 cell proliferation inhibition, CCK-8; details: Homo sapiens, 96 h, MOLM-13, 4 days, Table 10
Procedure: The complete medium required for MOLM-13 cells is 1640 (ATCC, Product number: 30-2001) basal medium containing 20% fetal bovine serum. MOLM-13 cells were seeded in a 96-well plate at a density of 7,500 cells/well, and different concentrations of the compounds of the present invention were prepared to treat the cells at the same time. The cells were incubated in a 37° C., 5% CO2 cell culture incubator for 4 days. Cell viability was detected using the CCK-8 kit (Beyotime, Product number: C0040) according to the manufacturer's instructions. According to the inhibition rate, GraphPad Prism software was used to calculate the IC50 value of each compound for 4 days, and the results are shown in Table 9-10.

[1] = Table 11, positive control Alisertib
[2] = Table 6, positive control Alisertib
[3] = Table 7, positive control Palbociclib
[4] = Table 12, positive control dBET6

Row | Compound | IC50 (K562 cells; [1]) | IC50 (MV-4-11 cells; [2]) | IC50 (MOLM-13 cells) | IC50 (MV-4-11 cells; [3]) | IC50 (K562 cells; [4])
1 | CC(=O)c1c(C)c2cnc(Nc3ccc(N4CCN(CCOCCC(=O)N5CCC6(CC5)COc5cc7c(cc5C6)C(=O)N(C5CCC(=O)NC5=O)C7=O)CC4)cn3)nc2n(C2CCCC2)c1=O (stereo not shown) [PROTAC 40, 1-(3-(2-(4-(6-((6-acetyl-8-cyclopentyl-5-methyl-7-oxo-7,8-dihydropyridone[2,3-d]pyrimidin-2-yl)amino)pyridin-3-yl)piperazin-1-yl)ethoxy)propionyl)-7′-(2,6-dioxopiperidin-3-yl)-2′H-spiro[piperidine-4,3′-pyrano[2,3-f]isoindole]-6′,8′(4′H,7′H)-dione] |  |  | 4870 nM |  | 
2 | CC(=O)c1c(C)c2cnc(Nc3ccc(N4CCN(CCOCCC(=O)N5CCC6(CC5)COc5cc7c(cc56)C(=O)N(C5CCC(=O)NC5=O)C7=O)CC4)cn3)nc2n(C2CCCC2)c1=O (stereo not shown) [PROTAC 41, 1′-(3-(2-(4-(6-((6-acetyl-8-cyclopentyl-5-methyl-7-oxo-7,8-dihydropyridone[2,3-d]pyrimidin-2-yl)amino)pyridin-3-yl)piperazin-1-yl)ethoxy)propionyl)-6-(2,6-dioxopiperidin-3-yl)-6-hydro-2H,5H-spiro[furo[2,3-f]isoindole-3,4′-piperidine]-5,7-dione] |  |  | 2190 nM | 2160 nM | 
3 | Cc1nc(Nc2ncc(C(=O)Nc3c(C)cccc3Cl)s2)cc(N2CCN(CCOCCC(=O)N3CCC4(CC3)COc3cc5c(cc3O4)CN(C3CCC(=O)NC3=O)C5=O)CC2)n1 (stereo not shown) [PROTAC 15, N-(2-chloro-6-methylphenyl)-2-((6-(4-(2-(3-(7′-(2,6-dioxopiperidin-3-yl)-6′-oxo-7′,8′-dihydro-3′H,6′H-spiro[piperidine-4,2′-[1,4]dioxino[2,3-f]isoindol]-1-yl)-3-oxopropoxy)ethyl)piperazin-1-yl)-2-methylpyrimidin-4-yl)amino)thiazole-5-carboxamide] |  |  |  |  | 5 nM
4 | CC(=O)c1c(C)c2cnc(Nc3ccc(N4CCN(CCOCCC(=O)N5CC6(CCc7cc8c(cc7O6)C(=O)N(C6CCC(=O)NC6=O)C8=O)C5)CC4)cn3)nc2n(C2CCCC2)c1=O (stereo not shown) [PROTAC 39, 1-(3-(2-(4-(6-((6-acetyl-8-cyclopentyl-5-methyl-7-oxo-7,8-dihydropyridone[2,3-d]pyrimidin-2-yl)amino)pyridin-3-yl)piperazin-1-yl)ethoxy)propionyl)-7′-(2,6-dioxopiperidin-3-yl)-3′,4′-dihydro-6′H-spiro[azetidine-3,2′-pyrano[2,3-f]isoindole]-6′,8′(7′ H)-dione] |  |  | 12400 nM | 12700 nM | 
5 | CC(=O)c1c(C)c2cnc(Nc3ccc(N4CCN(CCOCCC(=O)N5CCC6(CCc7cc8c(cc7O6)CN(C6CCC(=O)NC6=O)C8=O)CC5)CC4)cn3)nc2n(C2CCCC2)c1=O (stereo not shown) [PROTAC 43, 3-(1-(3-(2-(4-(6-((6-acetyl-8-cyclopentyl-5-methyl-7-oxo-7,8-dihydropyridone[2,3-d]pyrimidin-2-yl)amino)pyridin-3-yl)piperazin-1-yl)ethoxy)propionyl)-6′-oxo-6′,8′-dihydro-3′H,7′H-spiro[piperidine-4,2′-[1,4]dioxino[2,3-f]isoindole]-7′-yl)piperidine-2,6-dione] |  |  | 1870 nM | 2490 nM | 
6 | CC(=O)c1c(C)c2cnc(Nc3ccc(N4CCN(CCOCCC(=O)N5CCC6(CCc7cc8c(cc7O6)C(=O)N(C6CCC(=O)NC6=O)C8)CC5)CC4)cn3)nc2n(C2CCCC2)c1=O (stereo not shown) [PROTAC 42, 3-(1-(3-(2-(4-(6-((6-acetyl-8-cyclopentyl-5-methyl-7-oxo-7,8-dihydropyridone[2,3-d]pyrimidin-2-yl)amino)pyridin-3-yl)piperazin-1-yl)ethoxy)propionyl)-8′-oxo-3′,4′,6′,8′-tetrahydro-7′H-spiro[piperidine-4,2′-pyrano[2,3-f]isoindole]-7′-yl)piperidine-2,6-dione] |  |  | 830 nM | 940 nM | 

Continued, values first:

Row | IC50 (K562 cells; [1]) | IC50 (MV-4-11 cells; [2]) | IC50 (MOLM-13 cells) | IC50 (MV-4-11 cells; [3]) | IC50 (K562 cells; [4]) | Compound
7 | 150 nM | 120 nM |  |  |  | COc1cc(Nc2ncc3c(n2)-c2ccc(Cl)cc2C(c2c(F)cccc2OC)=NC3)ccc1C(=O)N1CCC2(CCc3cc4c(cc3O2)CN(C2CCC(=O)NC2=O)C4=O)CC1 (stereo not shown) [PROTAC 1, 3-(1-(4-((9-chloro-7-(2-fluoro-6-methoxyphenyl)-5H-benzo[c]pyrimido[4,5-e]azepine-2-yl)amino)-2-methoxybenzoyl)-6′-oxo-3′,4′,6′,8′-tetrahydro-7′H-spiro[piperidine-4,2′-pyrano[2,3-f]isoindol]-7′-yl)piperidine-2,6-dione]
8 | 3770 nM | 26 nM |  |  |  | COc1cc(Nc2ncc3c(n2)-c2ccc(Cl)cc2C(c2c(F)cccc2OC)=NC3)ccc1C(=O)O [Alisertib, reference compound]
9 | 410 nM | 77 nM |  |  |  | COc1cc(Nc2ncc3c(n2)-c2ccc(Cl)cc2C(c2c(F)cccc2OC)=NC3)ccc1C(=O)N1CC2(CCc3cc4c(cc3O2)CN(C2CCC(=O)NC2=O)C4=O)C1 (stereo not shown) [PROTAC 3, 3-(1-(4-((9-chloro-7-(2-fluoro-6-methoxyphenyl)-5H-benzo[c]pyrimido[4,5-e]azepine-2-yl)amino)-2-methoxybenzoyl)-6′-oxo-3′,4′,6′,8′-tetrahydro-7′H-spiro[azetidine-3,2′-pyrano[2,3-f]isoindole]-7′-yl)piperidine-2,6-dione]
10 |  |  | 1310 nM | 3310 nM |  | CC(=O)c1c(C)c2cnc(Nc3ccc(N4CCN(CCOCCC(=O)N5CC6(CCc7cc8c(cc7O6)C(=O)N(C6CCC(=O)NC6=O)C8)C5)CC4)cn3)nc2n(C2CCCC2)c1=O (stereo not shown) [PROTAC 44, 3-(1-(3-(2-(4-(6-((6-acetyl-8-cyclopentyl-5-methyl-7-oxo-7,8-dihydropyridone[2,3-d]pyrimidin-2-yl)amino)pyridin-3-yl)piperazin-1-yl)ethoxy)propionyl)-8′-oxo-3′,4′,6′,8′-tetrahydro-7′H-spiro[azetidine-3,2′-pyrano[2,3-f]isoindole]-7′-yl)piperidine-2,6-dione]
11 |  |  | 4340 nM | 4250 nM |  | CC(=O)c1c(C)c2cnc(Nc3ccc(N4CCN(CCOCCC(=O)N5CC6(CCc7cc8c(cc7O6)CN(C6CCC(=O)NC6=O)C8=O)C5)CC4)cn3)nc2n(C2CCCC2)c1=O (stereo not shown) [PROTAC 45, 3-(1-(3-(2-(4-(6-((6-acetyl-8-cyclopentyl-5-methyl-7-oxo-7,8-dihydropyridone[2,3-d]pyrimidin-2-yl)amino)pyridin-3-yl)piperazin-1-yl)ethoxy)propionyl)-6′-oxo-3′,4′,6′,8′-tetrahydro-7′H-spiro[azetidine-3,2′-pyrano[2,3-f]isoindole]-7′-yl)piperidine-2,6-dione]
12 | 220 nM | 25 nM |  |  |  | COc1cc(Nc2ncc3c(n2)-c2ccc(Cl)cc2C(c2c(F)cccc2OC)=NC3)ccc1C(=O)N1CC2(CCc3cc4c(cc3O2)C(=O)N(C2CCC(=O)NC2=O)C4)C1 (stereo not shown) [PROTAC 4, 3-(1-(4-((9-chloro-7-(2-fluoro-6-methoxyphenyl)-5H-benzo[c]pyrimido[4,5-e]azepine-2-yl)amino)-2-methoxybenzoyl)-8′-oxo-3′,4′,6′,8′-tetrahydro-7′H-spiro[azetidine-3,2′-pyrano[2,3-f]isoindole]-7′-yl)piperidine-2,6-dione]
13 | 1470 nM | 360 nM |  |  |  | COc1cc(Nc2ncc3c(n2)-c2ccc(Cl)cc2C(c2c(F)cccc2OC)=NC3)ccc1C(=O)NCCOCCC(=O)N1CCC2(CC1)COc1cc3c(cc12)C(=O)N(C1CCC(=O)NC1=O)C3=O (stereo not shown) [PROTAC 7, 4-((9-chloro-7-(2-fluoro-6-methoxyphenyl)-5H-benzo[c]pyrimido[4,5-e]azepine-2-yl)amino)-N-(2-(3-(6-(2,6-dioxopiperidin-3-yl)-5,7-dioxo-6,7-dihydro-2H,5H-spiro[furan [2,3-f]isoindole-3,4′-piperidin]-1′-yl)-3-oxopropoxy)ethyl)-2-methoxybenzamide]
14 |  |  |  |  | 57 nM | Cc1nc(Nc2ncc(C(=O)Nc3c(C)cccc3Cl)s2)cc(N2CCN(CCOCCC(=O)N3CC4(CCc5cc6c(cc5O4)C(=O)N(C4CCC(=O)NC4=O)C6)C3)CC2)n1 (stereo not shown) [PROTAC 14, N-(2-chloro-6-methylphenyl)-2-((6-(4-(2-(3-(7′-(2,6-dioxopiperidin-3-yl)-8′-oxo-4′,6′,7′,8′-tetrahydro-3′H-spiro[azetidine-3,2′-pyrano[2,3-f]isoindol]-1-yl)-3-oxopropoxy)ethyl)piperazin-1-yl)-2-methylpyrimidin-4-yl)amino)thiazole-5-carboxamide]

— US20250129088A1, “CEREBLON E3 UBIQUITIN LIGASE INHIBITOR” (Gan & Lee Pharmaceuticals Co., Ltd., priority 2022, published 2025)
